According to patent publication US12655116B2, “Substituted isophthalic acid diamides” (Bayer Aktiengesellschaft, priority 2020, dated 2026):

Key:
ABUTH [1] = test: Pre-emergence herbicidal action against ABUTH; type: in vivo, Abutilon theophrasti
How it was run: (§1)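 Pre-emergence soil-surface spray of formulated compound (WP or EC; 600 to 800 l/ha; 0.2% wetting agent) over seeds sown in sandy loam. After 3 weeks under greenhouse conditions, damage is estimated visually in percent against untreated plants.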

ALOMY [2] = test: Pre-emergence herbicidal action against ALOMY; type: in vivo, Alopecurus myosuroides; conditions: pre-emergence
How it was run: as §1

AMARE [3] = test: Pre-emergence herbicidal action against AMARE; type: in vivo, Amaranthus retroflexus
How it was run: as §1

AVEFA = test: Pre-emergence herbicidal action against AVEFA; type: in vivo, Avena fatua
How it was run: as §1

ECHCG [4] = test: Pre-emergence herbicidal action against ECHCG; type: in vivo, Echinochloa crus-galli
How it was run: as §1

LOLRI = test: Pre-emergence herbicidal action against LOLRI; type: in vivo, Lolium rigidum; conditions: 80 g/ha
How it was run: as §1

MATIN [5] = test: Pre-emergence herbicidal action against MATIN; type: in vivo, Matricaria inodora
How it was run: as §1

PHBPU [6] = test: Pre-emergence herbicidal action against PHBPU; type: in vivo, Pharbitis purpurea
How it was run: as §1

SETVI [7] = test: Pre-emergence herbicidal action against SETVI; type: in vivo, Setaria viridis
How it was run: as §1

VIOTR [8] = test: Pre-emergence herbicidal action against VIOTR; type: in vivo, Viola tricolor
How it was run: as §1

DIGSA [9] = test: Pre-emergence herbicidal action against DIGSA; type: in vivo, Digitaria sanguinalis
How it was run: as §1

ALOMY [10] = test: Post-emergence herbicidal action against ALOMY; type: in vivo, Alopecurus myosuroides; conditions: visual assessment about 3 weeks after treatment vs untreated controls
How it was run: (§2)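 Greenhouse plants in sandy loam were sprayed at the one-leaf stage, 2 to 3 weeks after sowing, with WP or EC formulations as aqueous suspension or emulsion (600 to 800 l/ha water, 0.2% wetting agent). Visual damage was scored about 3 weeks later versus untreated controls, 0% = like control, 100% = dead.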

AMARE [11] = test: Post-emergence herbicidal action against AMARE; type: in vivo, Amaranthus retroflexus; conditions: 20 g/ha, visual assessment about 3 weeks after treatment, 100% = plants have died, 0% = like control plants
How it was run: as §2

ECHCG [12] = test: Post-emergence herbicidal action against ECHCG; type: in vivo, Echinochloa crus-galli; conditions: dosage 20 g/ha
How it was run: as §2

MATIN [13] = test: Post-emergence herbicidal action against MATIN; type: in vivo, Matricaria inodora
How it was run: as §2

PHBPU [14] = test: Post-emergence herbicidal action against PHBPU; type: in vivo, Pharbitis purpurea; conditions: dosage 20 g/ha
How it was run: as §2

SETVI [15] = test: Post-emergence herbicidal action against SETVI; type: in vivo, Setaria viridis
How it was run: as §2

VERPE [16] = test: Post-emergence herbicidal action against VERPE; type: in vivo, Veronica persica
How it was run: as §2

VIOTR [17] = test: Post-emergence herbicidal action against VIOTR; type: in vivo, Viola tricolor
How it was run: as §2

DIGSA [18] = test: Post-emergence herbicidal action against DIGSA; type: in vivo, Digitaria sanguinalis; conditions: 20 g/ha
How it was run: as §2

VERPE [19] = test: Pre-emergence herbicidal action against VERPE; type: in vivo, Veronica persica; conditions: Veronica persica, 504 h, dosage 80 g/ha
How it was run: as §1

ABUTH [20] = test: Post-emergence herbicidal action against ABUTH; type: in vivo, Abutilon theophrasti; conditions: Abutilon theophrasti, 504 h, visual assessment about 3 weeks after treatment vs untreated controls
How it was run: as §2

[21] = 80 g/ha, scored visually after 3 weeks vs untreated controls (100% = plants have died, 0% = like control plants)
[22] = 20 g/ha, scored visually after 3 weeks vs untreated controls, 100% = plants have died, 0% = like control plants
[23] = Tripleurospermum inodorum, 504 h, dosage 20 g/ha
[24] = Setaria viridis, 504 h, dosage 20 g/ha

CCn1nnnc1NC(=O)c1ccc(C(F)(F)F)c(C(=O)NCC(F)(F)F)c1Cl [Example 2-133]
Pre-emergence action against ABUTH (herbicidal activity) (ABUTH [1]; [21]): 100%
Pre-emergence action against ALOMY (herbicidal activity) (ALOMY [2]; [21]): 90%
Pre-emergence action against AMARE in % (AMARE [3]; [22]): 90%
Pre-emergence action against AMARE in % (AMARE [3]; [21]): 100%
Pre-emergence action against AVEFA in % (AVEFA; 80 g/ha, pre-emergence): 90%
Pre-emergence action against ECHCG in % (ECHCG [4]; 80 g/ha): 100%
Pre-emergence action against LOLRI in % (LOLRI): 80%
Pre-emergence action against MATIN in % (MATIN [5]; dosage 20 g/ha): 90%
Pre-emergence action against MATIN in % (MATIN [5]; dosage 80 g/ha): 100%
Pre-emergence action against PHBPU in % (PHBPU [6]; dosage 80 g/ha): 80%
Pre-emergence action against SETVI in % (SETVI [7]; dosage 20 g/ha): 100%
Pre-emergence action against SETVI in % (SETVI [7]; dosage 80 g/ha): 100%
Pre-emergence action against VIOTR in % (VIOTR [8]; dosage 80 g/ha): 90%
Pre-emergence action against DIGSA in % (DIGSA [9]; dosage 80 g/ha): 90%
Post-emergence action against ALOMY in % (ALOMY [10]; dosage 20 g/ha): 80%
Post-emergence action at 20 g/ha against AMARE in % (AMARE [11]): 90%
Post-emergence action against ECHCG in % (ECHCG [12]): 80%
Post-emergence action against MATIN in % (MATIN [13]; dosage 20 g/ha): 90%
Post-emergence action against PHBPU in % (PHBPU [14]): 80%
Post-emergence action against SETVI in % (SETVI [15]; dosage 5 g/ha): 80%
Post-emergence action against SETVI in % (SETVI [15]; dosage 20 g/ha): 90%
Post-emergence action against VERPE in % (VERPE [16]; 5 g/ha): 80%
Post-emergence action against VERPE in % (VERPE [16]; 20 g/ha): 80%
Post-emergence action against VIOTR in % (VIOTR [17]; 20 g/ha): 80%

CCn1nnnc1NC(=O)c1ccc(C(F)(F)F)c(C(=O)NCC(F)F)c1Cl [Example 2-134]
Pre-emergence action against ABUTH (herbicidal activity) (ABUTH [1]; [21]): 100%
Pre-emergence action against ABUTH (herbicidal activity in percent) (ABUTH [1]; dosage 20 g/ha, scored visually after 3 weeks vs untreated controls, 100% = plants have died, 0% = like control plants): 100%
Pre-emergence action against ALOMY (herbicidal activity) (ALOMY [2]; [21]): 90%
Pre-emergence action against AMARE in % (AMARE [3]; [22]): 100%
Pre-emergence action against AMARE in % (AMARE [3]; [21]): 100%
Pre-emergence action against AVEFA (AVEFA; 20 g/ha, scored visually after 3 weeks, 100% = plants have died, 0% = like control plants): 80%
Pre-emergence action against AVEFA in % (AVEFA; 80 g/ha, pre-emergence): 90%
Pre-emergence action against ECHCG in % (ECHCG [4]; 20 g/ha): 80%
Pre-emergence action against ECHCG in % (ECHCG [4]; 80 g/ha): 100%
Pre-emergence action against LOLRI in % (LOLRI): 80%
Pre-emergence action against MATIN in % (MATIN [5]; dosage 20 g/ha): 90%
Pre-emergence action against MATIN in % (MATIN [5]; dosage 80 g/ha): 100%
Pre-emergence action against PHBPU in % (PHBPU [6]; dosage 20 g/ha): 80%
Pre-emergence action against PHBPU in % (PHBPU [6]; dosage 80 g/ha): 90%
Pre-emergence action against SETVI in % (SETVI [7]; dosage 20 g/ha): 80%
Pre-emergence action against SETVI in % (SETVI [7]; dosage 80 g/ha): 100%
Pre-emergence action against VIOTR in % (VIOTR [8]; dosage 20 g/ha): 100%
Pre-emergence action against VIOTR in % (VIOTR [8]; dosage 80 g/ha): 100%
Pre-emergence action against DIGSA in % (DIGSA [9]; dosage 20 g/ha): 80%
Pre-emergence action against DIGSA in % (DIGSA [9]; dosage 80 g/ha): 100%
Post-emergence action against ALOMY in % (ALOMY [10]; dosage 20 g/ha): 80%
Post-emergence action at 20 g/ha against AMARE in % (AMARE [11]): 100%
Post-emergence action against ECHCG in % (ECHCG [12]): 90%
Post-emergence action against MATIN in % (MATIN [13]; dosage 20 g/ha): 80%
Post-emergence action against PHBPU in % (PHBPU [14]): 90%
Post-emergence action against VERPE in % (VERPE [16]; 20 g/ha): 80%
Post-emergence action against VIOTR in % (VIOTR [17]; 5 g/ha): 80%
Post-emergence action against VIOTR in % (VIOTR [17]; 20 g/ha): 90%
Post-emergence action against DIGSA (DIGSA [18]): 80%

CCn1nnnc1NC(=O)c1ccc(Br)c(C(=O)NC)c1Cl [Example 2-177]
pest or weed control at 80 g/ha (ABUTH [1]; Abutilon theophrasti, 504 h, 80 g/ha, scored visually after 3 weeks vs untreated controls (100% = plants have died, 0% = like control plants)): 100%
pest or weed control at 20 g/ha (ABUTH [1]; Abutilon theophrasti, 504 h, dosage 20 g/ha, scored visually after 3 weeks vs untreated controls, 100% = plants have died, 0% = like control plants, read-out: Pre-emergence action against ABUTH (herbicidal activity in percent)): 90%
pest or weed control at 80 g/ha (ALOMY [2]; Alopecurus myosuroides, 504 h, 80 g/ha, scored visually after 3 weeks vs untreated controls (100% = plants have died, 0% = like control plants)): 100%
pest or weed control at 20 g/ha (ALOMY [2]; Alopecurus myosuroides, 504 h, 20 g/ha, scored visually after 3 weeks, 100% = plants have died, 0% = like control plants): 90%
pest or weed control at 20 g/ha (AMARE [3]; Amaranthus retroflexus, 504 h, 20 g/ha, scored visually after 3 weeks vs untreated controls, 100% = plants have died, 0% = like control plants): 100%
pest or weed control at 80 g/ha (AMARE [3]; Amaranthus retroflexus, 504 h, 80 g/ha, scored visually after 3 weeks vs untreated controls, 100% = plants have died, 0% = like control plants): 100%
pest or weed control at 80 g/ha (AVEFA; Avena fatua, 504 h, 80 g/ha, pre-emergence): 90%
pest or weed control at 80 g/ha (ECHCG [4]; Echinochloa crus-galli, 504 h, 80 g/ha): 90%
pest or weed control at 80 g/ha (LOLRI; Lolium rigidum, 504 h): 90%
pest or weed control at 20 g/ha (MATIN [5]; [23]): 90%
pest or weed control at 80 g/ha (MATIN [5]; Tripleurospermum inodorum, 504 h, dosage 80 g/ha): 100%
pest or weed control at 80 g/ha (PHBPU [6]; Ipomoea purpurea, 504 h, dosage 80 g/ha): 80%
pest or weed control at 20 g/ha (SETVI [7]; [24]): 100%
pest or weed control at 80 g/ha (SETVI [7]; Setaria viridis, 504 h, dosage 80 g/ha): 100%
pest or weed control at 80 g/ha (VERPE [19]): 80%
pest or weed control at 20 g/ha (VIOTR [8]; Viola tricolor, 504 h, dosage 20 g/ha): 100%
pest or weed control at 80 g/ha (VIOTR [8]; Viola tricolor, 504 h, dosage 80 g/ha): 100%
pest or weed control at 20 g/ha (DIGSA [9]; Digitaria sanguinalis, 504 h, dosage 20 g/ha): 100%
pest or weed control at 80 g/ha (DIGSA [9]; Digitaria sanguinalis, 504 h, dosage 80 g/ha): 100%
pest or weed control at 5 g/ha (ABUTH [20]; dosage 5 g/ha): 80%
pest or weed control at 20 g/ha (ABUTH [20]; dosage 20 g/ha): 90%
pest or weed control at 5 g/ha (ALOMY [10]; Alopecurus myosuroides, 504 h, dosage 5 g/ha): 80%
pest or weed control at 20 g/ha (ALOMY [10]; Alopecurus myosuroides, 504 h, dosage 20 g/ha): 100%
pest or weed control at 20 g/ha (AMARE [11]; Amaranthus retroflexus, 504 h): 100%
pest or weed control at 5 g/ha (MATIN [13]; Tripleurospermum inodorum, 504 h, dosage 5 g/ha): 90%
pest or weed control at 20 g/ha (MATIN [13]; [23]): 90%
pest or weed control at 5 g/ha (SETVI [15]; Setaria viridis, 504 h, dosage 5 g/ha): 90%
pest or weed control at 20 g/ha (SETVI [15]; [24]): 90%
pest or weed control at 20 g/ha (VERPE [16]; Veronica persica, 504 h, 20 g/ha): 80%
pest or weed control at 5 g/ha (VIOTR [17]; Viola tricolor, 504 h, 5 g/ha): 80%
pest or weed control at 20 g/ha (VIOTR [17]; Viola tricolor, 504 h, 20 g/ha): 100%
